Assay results: article PMC5218480 (PLoS ONE, 2017)

Test system: MV-4-11 cells
Assay: Gene expression microarray analysis (Affymetrix PrimeView) and GSEA
Format: cell-based, human
Parameters: RFU PODN (11730768_x_at) / Fold change /veh PODN (11730768_x_at) / RFU LINC00158 (11744669_a_at) / Fold change /veh LINC00158 (11744669_a_at) / RFU DUSP10 (11751237_a_at) / Fold change /veh DUSP10 (11751237_a_at) / RFU ID3 (11757404_x_at) / Fold change /veh ID3 (11757404_x_at) / RFU PLEKHG5 (11737974_s_at) / Fold change /veh PLEKHG5 (11737974_s_at) / RFU LRRC4B (11730491_at) / Fold change /veh LRRC4B (11730491_at) / RFU GIMAP4 (11747438_a_at) / Fold change /veh GIMAP4 (11747438_a_at) / RFU KRT8 (11758183_x_at) / Fold change /veh KRT8 (11758183_x_at) / RFU CNN1 (11734310_a_at) / Fold change /veh CNN1 (11734310_a_at) / RFU VPS37D (11726825_at) / Fold change /veh VPS37D (11726825_at) / RFU C10orf10 (11716522_x_at) / Fold change /veh C10orf10 (11716522_x_at) / RFU KIR2DL2 /// KIR2DL4 /// KIR2DL5A /// KIR2DL5B /// KIR2DS1 /// KIR2DS2 /// KIR2DS3 /// KIR2DS4 /// KIR3DL3 /// KIR3DL3 /// KIR3DS1 (11738374_at) / Fold change /veh KIR2DL2 /// KIR2DL4 /// KIR2DL5A /// KIR2DL5B /// KIR2DS1 /// KIR2DS2 /// KIR2DS3 /// KIR2DS4 /// KIR3DL3 /// KIR3DL3 /// KIR3DS1 (11738374_at) / RFU C1QL1 (11718748_at) / Fold change /veh C1QL1 (11718748_at) / RFU TMPRSS4 (11747572_a_at) / Fold change /veh TMPRSS4 (11747572_a_at) / RFU HAMP (11756126_x_at) / Fold change /veh HAMP (11756126_x_at) / RFU RNFT2 (11725882_a_at) / Fold change /veh RNFT2 (11725882_a_at) / RFU NR4A2 (11747474_a_at) / Fold change /veh NR4A2 (11747474_a_at) / RFU ABCC12 (11746883_a_at) / Fold change /veh ABCC12 (11746883_a_at) / RFU TMEM136 (11760407_x_at) / Fold change /veh TMEM136 (11760407_x_at) / RFU CLDN22 /// WWC2 (11732394_at) / Fold change /veh CLDN22 /// WWC2 (11732394_at) / RFU HLA-DPB1 (11760878_x_at) / Fold change /veh HLA-DPB1 (11760878_x_at) / RFU SPINT1 (11716480_a_at) / Fold change /veh SPINT1 (11716480_a_at) / RFU GAP43 (11754022_s_at) / Fold change /veh GAP43 (11754022_s_at) / RFU A4GNT (11735810_at) / Fold change /veh A4GNT (11735810_at) / RFU PRB3 (11715151_x_at) / Fold change /veh PRB3 (11715151_x_at) / RFU TUBB4B (11761932_at) / Fold change /veh TUBB4B (11761932_at) / RFU CAPN14 (11732068_a_at) / Fold change /veh CAPN14 (11732068_a_at) / RFU TMCC2 (11721928_a_at) / Fold change /veh TMCC2 (11721928_a_at) / RFU IRGQ (11745062_a_at) / Fold change /veh IRGQ (11745062_a_at) / RFU FAM174B (11720279_a_at) / Fold change /veh FAM174B (11720279_a_at) / RFU TMPRSS4 (11748680_a_at) / Fold change /veh TMPRSS4 (11748680_a_at) / RFU FAM212B (11763350_a_at) / Fold change /veh FAM212B (11763350_a_at) / RFU PLEKHG5 (11743358_a_at) / Fold change /veh PLEKHG5 (11743358_a_at) / RFU ZSCAN30 (11745921_a_at) / Fold change /veh ZSCAN30 (11745921_a_at) / RFU CMKLR1 (11741424_a_at) / Fold change /veh CMKLR1 (11741424_a_at) / RFU LOC101060620 /// MAPK8IP1 (11723275_at) / Fold change /veh LOC101060620 /// MAPK8IP1 (11723275_at) / RFU SPTSSB (11747773_x_at) / Fold change /veh SPTSSB (11747773_x_at) / RFU PRSS12 (11739890_at) / Fold change /veh PRSS12 (11739890_at) / RFU BIN1 (11741810_x_at) / Fold change /veh BIN1 (11741810_x_at) / RFU WNT11 (11732464_a_at) / Fold change /veh WNT11 (11732464_a_at) / RFU C10orf10 (11716521_a_at) / Fold change /veh C10orf10 (11716521_a_at) / RFU C5orf56 (11738089_at) / Fold change /veh C5orf56 (11738089_at) / RFU CYB561 (11721691_x_at) / Fold change /veh CYB561 (11721691_x_at) / RFU ANKRD19P (11752326_a_at) / Fold change /veh ANKRD19P (11752326_a_at) / RFU OR2T12 /// OR2T33 /// OR2T8 (11738714_s_at) / Fold change /veh OR2T12 /// OR2T33 /// OR2T8 (11738714_s_at) / RFU VCAN (11748164_a_at) / Fold change /veh VCAN (11748164_a_at) / RFU JSRP1 (11732532_at) / Fold change /veh JSRP1 (11732532_at) / RFU KRTAP10-11 (11738290_x_at) / Fold change /veh KRTAP10-11 (11738290_x_at) / RFU MYO3A (11730013_a_at) / Fold change /veh MYO3A (11730013_a_at) / RFU EBF3 (11725865_a_at) / Fold change /veh EBF3 (11725865_a_at) / RFU CAMK2N1 (11719241_x_at) / Fold change /veh CAMK2N1 (11719241_x_at) / RFU C5orf56 (11738088_a_at) / Fold change /veh C5orf56 (11738088_a_at) / RFU OLFML3 (11715873_a_at) / Fold change /veh OLFML3 (11715873_a_at) / RFU LOC100653217 /// NTM (11731650_a_at) / Fold change /veh LOC100653217 /// NTM (11731650_a_at) / RFU MAPK11 (11762145_a_at) / Fold change /veh MAPK11 (11762145_a_at) / RFU FIZ1 (11724087_x_at) / Fold change /veh FIZ1 (11724087_x_at) / RFU OASL (11726364_x_at) / Fold change /veh OASL (11726364_x_at) / RFU SOX15 (11748057_x_at) / Fold change /veh SOX15 (11748057_x_at) / RFU CD79A (11719716_a_at) / Fold change /veh CD79A (11719716_a_at) / RFU HIST1H1D (11736915_at) / Fold change /veh HIST1H1D (11736915_at) / RFU CASKIN2 (11723855_a_at) / Fold change /veh CASKIN2 (11723855_a_at) / RFU LOC730098 (11760151_x_at) / Fold change /veh LOC730098 (11760151_x_at) / RFU OR4N2 (11742367_at) / Fold change /veh OR4N2 (11742367_at) / RFU PRRT2 (11749266_a_at) / Fold change /veh PRRT2 (11749266_a_at) / RFU SNX32 (11753110_a_at) / Fold change /veh SNX32 (11753110_a_at) / RFU CDHR5 (11726645_a_at) / Fold change /veh CDHR5 (11726645_a_at) / RFU RCAN1 (11760418_a_at) / Fold change /veh RCAN1 (11760418_a_at) / RFU FAM167A (11723789_a_at) / Fold change /veh FAM167A (11723789_a_at) / RFU FAM26E (11764081_at) / Fold change /veh FAM26E (11764081_at) / RFU ISYNA1 (11749810_s_at) / Fold change /veh ISYNA1 (11749810_s_at) / RFU ACY1 (11761880_at) / Fold change /veh ACY1 (11761880_at) / RFU 11764098_at / Fold change /veh 11764098_at / RFU SAMD14 (11745864_x_at) / Fold change /veh SAMD14 (11745864_x_at) / RFU NPB (11741838_a_at) / Fold change /veh NPB (11741838_a_at) / RFU TMPRSS6 (11731388_a_at) / Fold change /veh TMPRSS6 (11731388_a_at) / RFU KRTAP10-2 (11738614_at) / Fold change /veh KRTAP10-2 (11738614_at) / RFU ARHGAP8 /// PRR5-ARHGAP8 (11727945_x_at) / Fold change /veh ARHGAP8 /// PRR5-ARHGAP8 (11727945_x_at) / RFU KRTAP5-7 /// NADSYN1 (11734609_at) / Fold change /veh KRTAP5-7 /// NADSYN1 (11734609_at) / RFU RASL12 (11751679_a_at) / Fold change /veh RASL12 (11751679_a_at) / RFU CDKN2B (11736163_a_at) / Fold change /veh CDKN2B (11736163_a_at) / RFU PRF1 (11729649_at) / Fold change /veh PRF1 (11729649_at) / RFU, ZNF638 /// ZNF638-IT1 / Fold change vs veh, ZNF638 /// ZNF638-IT1 / RFU, PANK3 / Fold change vs veh, PANK3 / RFU, SH3YL1 / Fold change vs veh, SH3YL1 / RFU, ZEB2 / Fold change vs veh, ZEB2 / RFU, NRIP1 / Fold change vs veh, NRIP1 / RFU, PTTG1IP / Fold change vs veh, PTTG1IP / RFU, CAPN2 / Fold change vs veh, CAPN2 / RFU, MED14 / Fold change vs veh, MED14 / RFU, SNORA58 / Fold change vs veh, SNORA58 / RFU, C1orf63 / Fold change vs veh, C1orf63 / RFU, LRRFIP1 / Fold change vs veh, LRRFIP1 / RFU, NDUFAF7 / Fold change vs veh, NDUFAF7 / RFU, SLC12A2 / Fold change vs veh, SLC12A2 / RFU, IBTK / Fold change vs veh, IBTK / RFU, ESF1 / Fold change vs veh, ESF1 / Fold change vs veh, TMEM50B / RFU, TAOK1 / Fold change vs veh, TAOK1 / RFU, ACBD3 / Fold change vs veh, ACBD3 / RFU, TMA16 / Fold change vs veh, TMA16 / RFU, RWDD3 / Fold change vs veh, RWDD3 / RFU, BCAT1 / Fold change vs veh, BCAT1 / RFU, EDEM3 / Fold change vs veh, EDEM3 / RFU, TMEM33 / Fold change vs veh, TMEM33 / RFU, WDR75 / Fold change vs veh, WDR75 / RFU, AHCTF1 / Fold change vs veh, AHCTF1 / RFU, TFRC / Fold change vs veh, TFRC / RFU, ZDHHC17 / Fold change vs veh, ZDHHC17 / RFU, NOM1 / Fold change vs veh, NOM1 / RFU, ARL8B / Fold change vs veh, ARL8B / RFU, ZBTB11 / Fold change vs veh, ZBTB11 / RFU, TAMM41 / Fold change vs veh, TAMM41 / RFU, KIAA1704 /// LOC100996395 / Fold change vs veh, KIAA1704 /// LOC100996395 / RFU, ING1 / Fold change vs veh, ING1 / RFU, TRMT61B / Fold change vs veh, TRMT61B / RFU, FUBP3 / Fold change vs veh, FUBP3 / RFU, TP53 / Fold change vs veh, TP53 / RFU, TNKS2 / Fold change vs veh, TNKS2 / RFU, ZFP14 / Fold change vs veh, ZFP14 / RFU, ACTR2 / Fold change vs veh, ACTR2 / RFU, PPP3R1 / Fold change vs veh, PPP3R1 / RFU, PIK3R1 / Fold change vs veh, PIK3R1 / RFU, HNRNPA1 / Fold change vs veh, HNRNPA1 / RFU, RNF170 / Fold change vs veh, RNF170 / RFU, ZNF28 / Fold change vs veh, ZNF28 / RFU, RNGTT / Fold change vs veh, RNGTT / RFU, OGT / Fold change vs veh, OGT / RFU, BRD1 / Fold change vs veh, BRD1 / RFU, MARS / Fold change vs veh, MARS / RFU, ZNF655 / Fold change vs veh, ZNF655 / RFU, FAHD1 / Fold change vs veh, FAHD1 / RFU, BDP1 / Fold change vs veh, BDP1 / RFU, LRRCC1 / Fold change vs veh, LRRCC1 / RFU, ARID1A / Fold change vs veh, ARID1A / RFU, ZNF146 / Fold change vs veh, ZNF146 / RFU, ZNF330 / Fold change vs veh, ZNF330 / RFU, GPN3 / Fold change vs veh, GPN3 / RFU, C9orf123 / Fold change vs veh, C9orf123 / RFU, N4BP2L2 / Fold change vs veh, N4BP2L2 / RFU, ARFIP1 / Fold change vs veh, ARFIP1 / RFU, FAM179B / Fold change vs veh, FAM179B / RFU, BCL10 / Fold change vs veh, BCL10 / RFU, UHRF1BP1L / Fold change vs veh, UHRF1BP1L / RFU, BET1 / Fold change vs veh, BET1 / RFU, CNOT2 / Fold change vs veh, CNOT2 / RFU, ZNF268 / Fold change vs veh, ZNF268 / Fold change vs veh, ZNF507 / RFU, DGCR2 / Fold change vs veh, DGCR2 / RFU, WDSUB1 / Fold change vs veh, WDSUB1 / Fold change vs veh, HSP90B1 /// MIR3652 / RFU, ADSS / Fold change vs veh, ADSS / RFU, GK / Fold change vs veh, GK / RFU, ZNF148 / Fold change vs veh, ZNF148 / RFU, TAF9 / Fold change vs veh, TAF9 / RFU, SLC1A5 / Fold change vs veh, SLC1A5 / RFU, SLMO2 / Fold change vs veh, SLMO2 / RFU, ABCC4 / Fold change vs veh, ABCC4 / RFU, LOC101060439 /// RAP1B / Fold change vs veh, LOC101060439 /// RAP1B / RFU, RFX7 / Fold change vs veh, RFX7 / RFU, GTPBP10 / Fold change vs veh, GTPBP10 / RFU, CNEP1R1 / Fold change vs veh, CNEP1R1 / RFU, BIVM-ERCC5 /// ERCC5 / Fold change vs veh, BIVM-ERCC5 /// ERCC5 / RFU, ILF3 / Fold change vs veh, ILF3 / RFU 11762660_at / Fold change /veh 11762660_at / RFU VCAN (11757783_s_at) / Fold change /veh VCAN (11757783_s_at) / RFU DDX43 (11728927_at) / Fold change /veh DDX43 (11728927_at) / RFU KRT8 (11758188_x_at) / Fold change /veh KRT8 (11758188_x_at) / RFU NKD1 (11759106_at) / Fold change /veh NKD1 (11759106_at) / RFU SRD5A1 (11742802_a_at) / Fold change /veh SRD5A1 (11742802_a_at) / RFU TPSAB1 /// TPSB2 (11721975_s_at) / Fold change /veh TPSAB1 /// TPSB2 (11721975_s_at) / RFU GSTM3 (11746129_a_at) / Fold change /veh GSTM3 (11746129_a_at) / RFU IL23R (11737362_x_at) / Fold change /veh IL23R (11737362_x_at) / RFU TMEM51 (11727254_a_at) / Fold change /veh TMEM51 (11727254_a_at) / RFU PIWIL2 (11732686_x_at) / Fold change /veh PIWIL2 (11732686_x_at) / RFU ORM1 (11744905_x_at) / Fold change /veh ORM1 (11744905_x_at) / RFU CCDC152 (11743942_at) / Fold change /veh CCDC152 (11743942_at) / RFU ECM1 (11717891_a_at) / Fold change /veh ECM1 (11717891_a_at) / RFU IL23R (11748794_a_at) / Fold change /veh IL23R (11748794_a_at) / RFU TNFAIP8L3 (11732012_x_at) / Fold change /veh TNFAIP8L3 (11732012_x_at) / RFU MBOAT4 (11741988_at) / Fold change /veh MBOAT4 (11741988_at) / RFU 11764193_at / Fold change /veh 11764193_at / RFU TMEM53 (11763286_at) / Fold change /veh TMEM53 (11763286_at) / RFU MAGEB2 (11727129_at) / Fold change /veh MAGEB2 (11727129_at) / RFU TMEM200A (11744735_a_at) / Fold change /veh TMEM200A (11744735_a_at) / RFU CCDC152 (11751479_a_at) / Fold change /veh CCDC152 (11751479_a_at) / RFU FAM211A (11726209_a_at) / Fold change /veh FAM211A (11726209_a_at) / RFU RGS16 (11746705_a_at) / Fold change /veh RGS16 (11746705_a_at) / RFU VCAN (11755009_s_at) / Fold change /veh VCAN (11755009_s_at) / RFU RHOB (11743442_s_at) / Fold change /veh RHOB (11743442_s_at) / RFU RGS16 (11720943_a_at) / Fold change /veh RGS16 (11720943_a_at) / RFU RGS16 (11720944_at) / Fold change /veh RGS16 (11720944_at) / RFU, VPS4B / Fold change vs veh, VPS4B / RFU, CREB1 / Fold change vs veh, CREB1 / RFU, DNAJC13 / Fold change vs veh, DNAJC13 / RFU, GNAQ / Fold change vs veh, GNAQ / RFU, CDK5R1 / Fold change vs veh, CDK5R1 / RFU, ZRANB3 / Fold change vs veh, ZRANB3 / RFU, CUL4A / Fold change vs veh, CUL4A / RFU, CCNY / Fold change vs veh, CCNY / RFU, UFL1 / Fold change vs veh, UFL1 / RFU, COG3 / Fold change vs veh, COG3 / RFU, DIAPH2 / Fold change vs veh, DIAPH2 / RFU, SKA2 / Fold change vs veh, SKA2 / RFU, AFF3 / Fold change vs veh, AFF3 / RFU, LMF1 / Fold change vs veh, LMF1 / RFU, IPO11 / Fold change vs veh, IPO11 / RFU, DFFB / Fold change vs veh, DFFB / RFU, FOXP1 / Fold change vs veh, FOXP1 / RFU, CARD8 / Fold change vs veh, CARD8 / RFU, STRN3 / Fold change vs veh, STRN3 / RFU, ADK / Fold change vs veh, ADK / RFU, RASSF2 / Fold change vs veh, RASSF2 / RFU, WIPF1 / Fold change vs veh, WIPF1 / RFU, LARP1B / Fold change vs veh, LARP1B / RFU, RASA1 / Fold change vs veh, RASA1 / RFU, RB1 / Fold change vs veh, RB1 / RFU, PPFIA1 / Fold change vs veh, PPFIA1 / RFU, MAT2A / Fold change vs veh, MAT2A / RFU, CCT5 / Fold change vs veh, CCT5 / RFU, WDR92 / Fold change vs veh, WDR92 / RFU, CUX1 / Fold change vs veh, CUX1 / RFU, TTC7A / Fold change vs veh, TTC7A / RFU, TMEM135 / Fold change vs veh, TMEM135 / RFU, DEPTOR / Fold change vs veh, DEPTOR / RFU, CPM / Fold change vs veh, CPM / RFU, DNAJB6 / Fold change vs veh, DNAJB6 / RFU, CACNA2D3 / Fold change vs veh, CACNA2D3 / RFU, DTX4 / Fold change vs veh, DTX4 / RFU, TFCP2 / Fold change vs veh, TFCP2 / RFU, GMCL1 /// GMCL1P1 / Fold change vs veh, GMCL1 /// GMCL1P1 / RFU, AEBP2 / Fold change vs veh, AEBP2 / RFU, SNHG1 /// SNORD22 /// SNORD25 /// SNORD26 /// SNORD27 /// SNORD28 /// SNORD29 /// SNORD31 / Fold change vs veh, SNHG1 /// SNORD22 /// SNORD25 /// SNORD26 /// SNORD27 /// SNORD28 /// SNORD29 /// SNORD31 / Fold change (Aza/veh), C12orf56 (ProbeSet 11735607_a_at) / Fold change (ACY-1035/veh), C12orf56 (ProbeSet 11735607_a_at) / Fold change (Aza/veh), FGFR1OP (ProbeSet 11751329_s_at) / Fold change (ACY-1035/veh), FGFR1OP (ProbeSet 11751329_s_at) / Fold change (Aza/veh), VPS36 (ProbeSet 11739960_a_at) / Fold change (ACY-1035/veh), VPS36 (ProbeSet 11739960_a_at) / RFU SYPL1 (11715823_x_at) / Fold change /veh SYPL1 (11715823_x_at) / RFU IGFBP7 (11715501_s_at) / Fold change /veh IGFBP7 (11715501_s_at) / RFU REEP3 (11722064_at) / Fold change /veh REEP3 (11722064_at) / RFU IGLL1 (11728026_x_at) / Fold change /veh IGLL1 (11728026_x_at): dose or concentration left out as unconfirmed
Conditions: MV-4-11 cells, 48 hours

Structure (SMILES): Nc1ncn([C@@H]2O[C@H](CO)[C@@H](O)[C@H]2O)c(=O)n1 [azacitidine]
- Fold change /veh RCAN1 (11760418_a_at): 0.93
